# In patent US9115123B2, “Preventive or therapeutic agent for pain associated with herpes zoster in acute phase” (Kyushu University, priority 2010, dated 2015):
# Experiments:
# [1] = test system: HSV-1 infected mice (zoster-associated pain in acute phase); experiment: Mouse model of herpes zoster, pain-associated reaction to von Frey filament (0.16 g) after intrathecal administration; type: in vivo; conditions: five to seven days after infection
# From the text: Epidermis of the right hind leg (lower part of knee joint) of shaven female C57BL/6J mice was chopped with a bundle of ten 26G injection needles, and coated with a solution (1×10^6 pfu/site) of herpes simplex virus Type I (HSV-1), which as well as varicella zoster virus, belongs to Herpesviridae (family) (Takasaki I, et al., Anesthesiology, 2002, 96:1168-1174). Seven days after infection, the spinal cord was collected after perfusion of 4% neutral buffered paraformaldehyde, replaced with 30% sucrose solution, embedded with OCT compound to prepare frozen slices. […]
# The effect of P2X4 receptor antagonism on zoster-associated pain in acute phase was studied using the mouse model of herpes zoster described in Example 2. […] Threshold of the pain was measured before administration of the drug (AM 9:30 to 10:00 and PM 5:30 to 6:00). Pain-associated reaction on the HSV-1 infection side hindpaw was measured using von Frey Filament (0.16 g). […] The pain reaction was evaluated as follows: • Score 0: No reaction • Score 1: Lifting of hind leg • Score 2: Sharp evasion reaction and flinching of hind leg
# Each individual pain score was calculated by averaging six scores. The allodynia score (%) was calculated as the average score of each group by counting the maximum reaction score 2 as 100%.
# Threshold of the pain was measured before administration of the drugs (AM 9:30 to 10:00 and PM 5:30 to 6:00).
# [2] = test system: HSV-1 infected mice (zoster-associated pain); experiment: Mouse model of herpes zoster, pain-associated reaction to paintbrush stimulus after oral administration; type: in vivo
# From the text: Epidermis of the right hind leg (lower part of knee joint) of shaven female C57BL/6J mice was chopped with a bundle of ten 26G injection needles, and coated with a solution (1×10^6 pfu/site) of herpes simplex virus Type I (HSV-1), which as well as varicella zoster virus, belongs to Herpesviridae (family) (Takasaki I, et al., Anesthesiology, 2002, 96:1168-1174). Seven days after infection, the spinal cord was collected after perfusion of 4% neutral buffered paraformaldehyde, replaced with 30% sucrose solution, embedded with OCT compound to prepare frozen slices. A specimen in cross section was prepared at the fifth lumbar level of the spinal cord, and was subjected to a fluorescent double immunostaining according to Alexa Fluor 488, 546 using OX42 antibody, which has widely been used as a microglia marker, and P2X4 receptor antibody. […] The pain-associated reaction of the hindpaw on the HSV-1 infection side was measured and evaluated referring to the response to a contact stimulant using a paint-brush. The mouse was placed into a cage for measurement, and accustomed to the environment for 1 hour or more. The plantar surface of the right hindpaw was vertically stroked with the paintbrush along the direction from toe to heal, and this was repeated six times at intervals of several seconds. The pain reaction was evaluated as follows: • Score 0: No reaction • Score 1: Lifting of hind leg • Score 2: Sharp evasion reaction and flinching of hind leg Each individual pain score was calculated by averaging six scores.
# P2X4 receptor = biological target: T1, P2X4 receptor (Homo sapiens, UniProt Q99571); conditions: reported in cited WO documents and Nagata K, Imai T et al., Molecular Pain, 2009, 5:20; cited from earlier work
# T1 sequence (Q99571 1-388): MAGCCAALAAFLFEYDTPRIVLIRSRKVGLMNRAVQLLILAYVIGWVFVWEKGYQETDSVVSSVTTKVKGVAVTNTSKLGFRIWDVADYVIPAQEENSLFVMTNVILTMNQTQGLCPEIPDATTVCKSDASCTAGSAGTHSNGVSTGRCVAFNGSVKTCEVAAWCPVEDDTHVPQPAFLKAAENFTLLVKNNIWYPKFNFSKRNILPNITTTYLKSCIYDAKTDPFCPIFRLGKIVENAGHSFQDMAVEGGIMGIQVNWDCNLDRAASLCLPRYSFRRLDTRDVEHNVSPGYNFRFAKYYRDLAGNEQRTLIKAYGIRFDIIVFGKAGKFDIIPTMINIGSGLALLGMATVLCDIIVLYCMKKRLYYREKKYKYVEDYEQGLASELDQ
Compound,"threshold score of the pain (von Frey, allodynia score) ([1]; 10 pmol/mouse intrathecal twice a day)","threshold score of the pain (von Frey, allodynia score) ([1]; 30 pmol/mouse intrathecal twice a day)","threshold of the pain (paintbrush pain score) ([2]; seven days after infection (acute phase), 30 mg/kg oral, from 1 hour to 4 hours after administration)","threshold of the pain (paintbrush pain score) ([2]; seven days after infection (acute phase), 50 mg/kg oral, from 30 minutes to 8 hours after administration)","threshold of the pain (paintbrush pain score) ([2]; thirty days after infection (postherpetic neuralgia), 30 mg/kg oral)","threshold of the pain (paintbrush pain score) ([2]; thirty days after infection (postherpetic neuralgia), 50 mg/kg oral, 30 minutes, 1 hour and 4 hours after administration)",P2X4 receptor antagonism / inhibition (in words) (P2X4 receptor)
"O=C1CC(=O)N(c2cccc(-c3noc(=S)[nH]3)c2)c2ccc3ccccc3c2N1.[Na] [Compound A, 5-[3-(5-thioxo-4H-[1,2,4]oxadiazol-3-yl)phenyl]-1H-naphtho[1,2-b][1,4]diazepine-2,4(3H,5H)-dione sodium salt]",significantly suppressed,significantly suppressed,,,,,
Fc1ccc([C@@H]2CCNC[C@H]2COc2ccc3c(c2)OCO3)cc1 [Paroxetine],,,significantly improved,continuously improved,did not show any significant improvement,significant improvement was observed,functions as an inhibitor of P2X4 receptor
